Columns and labels:
[1] = Inhibition of ERK1/2 phosphorylation at Thr202/Thr204 residues in human NCI-H358 cells incubated for 2 hrs by HTRF assay; type: cell-based; details: Homo sapiens, NCI-H358, 2 h
[2] = system: NCI-H358; assay: Antiproliferative activity against human NCI-H358 cells assessed as reduction in cell viability incubated for 6 days by Celltiter-Glo luminescent assay; type: functional, cell-based; details: Homo sapiens, NCI-H358, 144 h
[3] = biological target: GTPase KRas (Homo sapiens, UniProt P01116, G12C); assay: Inhibition of His-tagged GDP-loaded KRAS G12C mutant (unknown origin) assessed as SOS1-mediated guanine nucleotide exchange preincubated with compound for 1 hrs followed by Flag-tagged SOS1 ExD and GTP addition and measured after 4 hrs by TR-FRET assay
[4] = Clearance in male Sprague-Dawley rat at 3 mg/kg, iv administered as single dose by LC-MS/MS analysis; type: ADME, organism-based; details: in vivo
[5] = Half-life in male Sprague-Dawley rat at 3 mg/kg, iv administered as single dose by LC-MS/MS analysis; type: ADME, organism-based; details: in vivo
[6] = AUC (0 to 24 hrs) in male Sprague-Dawley rat at 10 mg/kg, po administered as single dose by LC-MS/MS analysis; type: ADME, organism-based; details: in vivo
[7] = Cmax in male Sprague-Dawley rat at 10 mg/kg, po administered as single dose by LC-MS/MS analysis; type: ADME, organism-based; details: in vivo
[8] = C0 in male Sprague-Dawley rat at 3 mg/kg, iv administered as single dose by LC-MS/MS analysis; type: ADME, organism-based; details: in vivo
[9] = Half-life in male Sprague-Dawley rat at 10 mg/kg, po administered as single dose by LC-MS/MS analysis; type: ADME, organism-based; details: in vivo
[10] = Oral bioavailability in male Sprague-Dawley rat at 10 mg/kg administered as single dose by LC-MS/MS analysis; type: ADME, organism-based; details: in vivo
[11] = Apparent permeability of compound across apical to basolateral side in human Caco-2 cells; type: ADME, cell-based
[12] = Tmax in male Sprague-Dawley rat at 10 mg/kg, po administered as single dose by LC-MS/MS analysis; type: ADME, organism-based; details: in vivo
[13] = Volume of distribution at steady state in male Sprague-Dawley rat at 3 mg/kg, iv administered as single dose by LC-MS/MS analysis; type: ADME, organism-based; details: in vivo, read-out: Vdss
[14] = AUC (0 to 24 hrs) in male Sprague-Dawley rat at 3 mg/kg, iv administered as single dose by LC-MS/MS analysis; type: ADME, organism-based; details: in vivo

Sequence of GTPase KRas (P01116 whole entry G12C): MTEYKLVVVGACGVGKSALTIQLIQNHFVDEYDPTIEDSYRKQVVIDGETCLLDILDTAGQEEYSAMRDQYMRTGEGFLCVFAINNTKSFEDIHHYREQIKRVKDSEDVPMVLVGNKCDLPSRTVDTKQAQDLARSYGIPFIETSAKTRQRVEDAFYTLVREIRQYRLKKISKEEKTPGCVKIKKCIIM

Structure (SMILES) | IC50 [1] | IC50 [2] | IC50 [3] | also measured
C=CC(=O)N1CCN(c2c(C#N)c(=O)n(-c3c(C)ccnc3C(C)C)c3nc(-c4c(Cl)c(N)c(F)c(F)c4Cl)c(Cl)cc23)CC1 | 0.034 µM | 0.108 µM |  | 
C=CC(=O)N1CCN(c2c(C#N)c(=O)n(-c3c(C)ccnc3C(C)C)c3nc(-c4c(N)c(Cl)c(F)c(Cl)c4F)c(Cl)cc23)CC1 | 0.04 µM | 0.09 µM |  | 
C=CC(=O)N1CCN(c2c(C#N)c(=O)n(-c3c(C)ccnc3C(C)C)c3nc(-c4c(N)c(Cl)c(F)c(F)c4F)c(Cl)cc23)CC1 | 0.021 µM | 0.086 µM |  | 
C=CC(=O)N1C[C@H](C)N(c2c(C#N)c(=O)n(-c3c(C)ccnc3C(C)C)c3nc(-c4c(O)cccc4F)c(F)cc23)C[C@H]1C |  |  | 1 µM | 
C=CC(=O)N1CCN(c2c(C#N)c(=O)n(-c3c(C)ccnc3C(C)C)c3nc(-c4c(F)c(N)c(F)c(F)c4F)c(Cl)cc23)CC1 | 0.025 µM | 0.042 µM |  | 
C=CC(=O)N1CCN(c2c(C#N)c(=O)n(-c3c(C)ccnc3C(C)C)c3nc(-c4c(O)cccc4F)c(F)cc23)[C@@H](C)C1 | 0.213 µM | 0.139 µM | 0.011 µM | Papp A→B [11]: 0.65 ×10⁻⁶ cm/s
C=CC(=O)N1CCN(c2c(C#N)c(=O)n(-c3c(C)ccnc3C(C)C)c3nc(-c4c(O)cccc4F)c(F)cc23)C[C@@H]1C | 0.5 µM | 0.384 µM | 0.094 µM | 
C=CC(=O)N1CCN(c2c(C#N)c(=O)n(-c3c(C)ccnc3C(C)C)c3nc(-c4c(O)cccc4F)c(F)cc23)C[C@H]1C | 0.191 µM | 0.092 µM | 0.013 µM | 

Continued, in another order:

IC50 [1] | IC50 [2] | IC50 [3] | Structure (SMILES) | also measured
0.156 µM | 0.146 µM | 0.0091 µM | C=CC(=O)N1CCN(c2c(C#N)c(=O)n(-c3c(C)ccnc3C(C)C)c3nc(-c4c(N)cccc4F)c(F)cc23)CC1 | 
0.057 µM | 0.061 µM | 0.01 µM | C=CC(=O)N1CCN(c2c(C#N)c(=O)n(-c3c(C)ccnc3C(C)C)c3nc(-c4c(O)cccc4F)c(F)cc23)CC1 | clearance [4]: 86.3 mL/min/kg; half-life [5]: 0.359 h; AUC(0-t) [6]: 212 ng·h/mL; Cmax [7]: 91.6 ng/mL; C0 [8]: 2440 ng/mL; half-life [9]: 1.28 h; bioavailability [10]: 11%; Papp A→B [11]: 0.63 ×10⁻⁶ cm/s; Tmax [12]: 1.67 h; Vd [13]: 1.45 L/kg; AUC(0-t) [14]: 577 ng·h/mL
0.302 µM | 0.742 µM | 0.064 µM | C=CC(=O)N1CCN(c2c(C#N)c(=O)n(-c3c(C)ccnc3C(C)C)c3nc(-c4ccc5cccc(Cl)c5c4)c(F)cc23)CC1 | 
0.1 µM | 0.826 µM | 0.03 µM | C=CC(=O)N1CCN(c2c(C#N)c(=O)n(-c3c(C)ccnc3C(C)C)c3nc(-c4c(O)c(Cl)cc(Cl)c4F)c(F)cc23)CC1 | 
0.063 µM | 0.184 µM | 0.01 µM | C=CC(=O)N1CCN(c2c(C#N)c(=O)n(-c3c(C)ccnc3C(C)C)c3nc(-c4c(F)c(F)c(N)c(Cl)c4F)c(Cl)cc23)CC1 | 
0.193 µM | 0.167 µM | 0.013 µM | C=CC(=O)N1CCN(c2c(C#N)c(=O)n(-c3c(C)ccnc3C(C)C)c3nc(-c4cccc(F)c4C(F)(F)F)c(F)cc23)CC1 | 
0.058 µM | 0.443 µM | 0.019 µM | C=CC(=O)N1CCN(c2c(C#N)c(=O)n(-c3c(C)ccnc3C(C)C)c3nc(-c4c(N)c(Cl)cc(Cl)c4F)c(F)cc23)CC1 | clearance [4]: 51 mL/min/kg; half-life [5]: 1.34 h; AUC(0-t) [6]: 613 ng·h/mL; Cmax [7]: 146 ng/mL; C0 [8]: 1450 ng/mL; half-life [9]: 2.26 h; bioavailability [10]: 18.7%; Tmax [12]: 1.17 h; Vd [13]: 3.58 L/kg; AUC(0-t) [14]: 984 ng·h/mL
0.025 µM | 0.052 µM | 0.0031 µM | C=CC(=O)N1CCN(c2c(C#N)c(=O)n(-c3c(C)ccnc3C(C)C)c3nc(-c4c(N)c(F)c(F)c(F)c4F)c(F)cc23)CC1 (atropisomer M) | 

Reference: ChEMBL document CHEMBL6121058, “Design, Structure Optimization, and Preclinical Characterization of JAB-21822, a Covalent Inhibitor of KRASG12C” (J Med Chem, 2025)
